Results published in ChEMBL document CHEMBL4715717, “Analysis of the aplyronine A-induced protein-protein interaction between actin and tubulin by surface plasmon resonance” (Bioorg Med Chem, 2016).
pIC50, pKd: −log10 of the molar value. Active and inactive are the calls of the source. The rule behind the calls is not given here.

How the values were obtained:
Homo sapiens [1] = organism: Homo sapiens; assay: Binding affinity to streptavidin immobilized actin (unknown origin) assessed as on rate constant by SPR analysis
[2] = Binding affinity to streptavidin immobilized actin (unknown origin) assessed as dissociation constant by SPR analysis; design: species or system Homo sapiens
HeLa S3 = assay: Cytotoxicity against human HeLa S3 cells assessed as reduction in cell viability measured after 96 hrs by MTT assay; assay type: functional, cell-based; settings: HeLa S3, 96 h
[3] = Binding affinity to streptavidin immobilized actin (unknown origin) assessed as off rate constant by SPR analysis; design: species or system Homo sapiens
Homo sapiens [4] = organism: Homo sapiens; assay: Induction of aplyronine A-actin complex-tubulin (unknown origin) protein-protein interaction assessed as actin-aplyronine A-tubulin ternary complex formation by SPR analysis
Homo sapiens [5] = organism: Homo sapiens; assay: Induction of aplyronine A-actin complex-tubulin (unknown origin) protein-protein interaction assessed as association of actin-aplyronine A-tubulin complex by SPR analysis
[6] = target: Actin, alpha skeletal muscle (Oryctolagus cuniculus, UniProt P68135); assay: Induction of rabbit skeletal muscle actin depolymerization measured after 120 mins by fluorescence assay
Homo sapiens [7] = organism: Homo sapiens; assay: Binding affinity to actin (unknown origin) assessed as dissociation constant for actin-compound-tubulin heterodimer complex at 8 degreeC
Homo sapiens [8] = organism: Homo sapiens; assay: Inhibition of aplyronine A-actin complex-tubulin (unknown origin) protein-protein interaction at 1 equivalent by SPR analysis
[9] = Binding affinity to actin (unknown origin) assessed as dissociation constant for actin-compound-tubulin heterodimer complex at 25 degreeC; design: species or system Homo sapiens
Homo sapiens [10] = organism: Homo sapiens; assay: Induction of microtubule (unknown origin) depolymerization pretreated with paclitaxel followed by compound treatment measured after 1 hr in presence of native and biotinylated tubulin and actin by ultracentrifugation
Homo sapiens [11] = organism: Homo sapiens; assay: Binding affinity to actin (unknown origin) assessed as thermal stability of actin-compound-immobilized tubulin heterodimer complex
Homo sapiens [12] = organism: Homo sapiens; assay: Binding affinity to actin (unknown origin) assessed as 1:1:1 ratio of actin-compound-tubulin heterodimer complex formation by measuring peak time in presence of 9:1 ratio of native/biotinylated tubulin by gel permeation HPLC analysis
Homo sapiens [13] = organism: Homo sapiens; assay: Binding affinity to actin (unknown origin) assessed as 1:1:1 ratio of actin-compound-tubulin heterodimer complex formation by measuring molecular weight in presence of 9:1 ratio of native/biotinylated tubulin by gel permeation HPLC analysis
[14] = Binding affinity to actin (unknown origin) assessed as off rate constant for actin-compound-tubulin heterodimer complex; design: species or system Homo sapiens
Homo sapiens [15] = organism: Homo sapiens; assay: Induction of immobilized actin-tubulin (unknown origin) protein-protein interaction by SPR analysis
Homo sapiens [16] = organism: Homo sapiens; assay: Binding affinity to actin (unknown origin) assessed as thermal stability of actin-compound-tubulin heterodimer complex at 25 degreeC
Homo sapiens [17] = organism: Homo sapiens; assay: Binding affinity to actin (unknown origin) assessed as on rate constant for actin-compound-tubulin heterodimer complex

Structure (SMILES)	Ka (Homo sapiens [1])	pKd [2]	pIC50 (HeLa S3)	Kd [3]	pKd [6]	inhibition (Homo sapiens [8]) [%]	further results
CO[C@H]1CC[C@@H](C)[C@@H](O)[C@H](C)[C@H](O)C/C=C/C=C/C(=O)O[C@H]([C@@H](C)[C@@H](O)[C@@H](C)CC[C@@H](OC(=O)C(C)N(C)C)[C@H](C)[C@H](OC(C)=O)[C@H](C)C/C=N/NC(=O)CCOCCOCCOCCOCCNC(=O)CCCC[C@@H]2SC[C@@H]3NC(=O)N[C@@H]32)C/C=C/[C@H](OC)C[C@H](C)C/C=C/1C (some centres not stated)	8.38 10^2/M/s	4.74	6.15	1.51 10^-2/s	–	–	–
C/C1=C/C(=O)O[C@@H]2C[C@@H](CC[C@H](C)/C=C\C=C\CC1)O[C@@](O)([C@@H]1CSC(=O)N1)C2	–	–	–	–	–	–	Activity (Homo sapiens [4]): Active; Activity (Homo sapiens [5]): Active
COCC(C(=O)O[C@@H]1C/C=C/C=C/C(=O)O[C@H]([C@@H](C)[C@@H](O)[C@@H](C)CC[C@@H](OC(=O)C(C)N(C)C)[C@H](C)[C@H](OC(C)=O)[C@H](C)/C=C/N(C)C=O)C/C=C/[C@H](OC)C[C@H](C)C/C=C(\C)[C@@H](OC)CC[C@@H](C)[C@@H](O)[C@@H]1C)N(C)C (some centres not stated) [APLYRONINE A]	–	–	11.00	–	7.00	100	Ka (Homo sapiens [7]): 3 10^6/M; pKd [9]: 5.74; Activity (Homo sapiens [10]): Active; Activity (Homo sapiens [11]): inactive; TIME (Homo sapiens [12]): 0.265 h; Activity (Homo sapiens [13]): 145 kDa; Kd [14]: 8.82 10^-2/s; Activity (Homo sapiens [15]): inactive; Activity (Homo sapiens [16]): inactive; Ka (Homo sapiens [17]): 4.78 10^4/M/s
CO[C@H]1CC[C@@H](C)[C@@H](O)[C@H](C)[C@H](O)C/C=C/C=C/C(=O)O[C@H]([C@@H](C)[C@@H](O)[C@@H](C)CC[C@@H](OC(=O)C(C)N(C)C)[C@H](C)[C@H](OC(C)=O)[C@H](C)/C=C/N(C)C=O)C/C=C/[C@H](OC)C[C@H](C)C/C=C/1C (some centres not stated) [APLYRONINE C]	–	–	7.77	–	–	100	–
COC[C@@H](OC)C(=O)O[C@H](CC[C@H](C)[C@H](C[C@@H]1OC(=O)C[C@@H](O)C/C=C/C(=O)[C@H](C)[C@H](OC)c2coc(n2)-c2coc(n2)-c2coc(n2)/C=C/C[C@H](OC)[C@H]1C)OC)[C@H](C)[C@H](OC(C)=O)[C@H](C)/C=C/N(C)C=O	–	–	–	–	7.89	100	–
COCC(C(=O)O[C@@H]1C/C=C/C=C/C(=O)O[C@H]([C@@H](C)[C@@H](O)[C@@H](C)CC[C@@H](OC(=O)C(C)N(C)C)[C@H](C)[C@H](OC(C)=O)[C@H](C)C/C=N/NC(=O)CCOCCOCCOCCOCCNC(=O)CCCC[C@@H]2SC[C@@H]3NC(=O)N[C@@H]32)C/C=C/[C@H](OC)C[C@H](C)C/C=C(\C)[C@@H](OC)CC[C@@H](C)[C@@H](O)[C@@H]1C)N(C)C (some centres not stated)	4.54 10^3/M/s	5.40	10.02	1.83 10^-2/s	–	–	–
